Experimental data published in ChEMBL document CHEMBL1146403, “Three new cryptophycins from Nostoc sp. GSV 224” (J Nat Prod, 1997).

Key:
Type in all cases: functional, cell-based
KB = assay: Cytotoxicity against human KB cells
LoVo = assay: Cytotoxicity against human LoVo cells
SK-OV-3 = assay: Cytotoxicity against human SKOV3 cells

| SMILES | IC50 (KB) [nM] | IC50 (LoVo) [nM] | IC50 (SK-OV-3) [nM] |
| --- | --- | --- | --- |
| COc1ccc(C[C@H]2NC(=O)/C=C/C[C@@H]([C@H](C)/C=C/c3ccccc3)OC(=O)[C@H](CC(C)C)OC(=O)[C@H](C)CNC2=O)cc1Cl [CRYPTOPHYCIN 3] | 1.9 | 1.9 | 1.9 |
| COc1ccc(C[C@H]2NC(=O)/C=C/C[C@@H]([C@H](C)[C@H]3O[C@@H]3c3ccccc3)OC(=O)[C@H](CC(C)C)OC(=O)[C@H](C)CNC2=O)cc1Cl [CRYPTOPHYCIN A] | 0.0092 | 0.0092 | 0.0092 |
| COc1c(Cl)cc(C[C@H]2NC(=O)/C=C/C[C@@H]([C@H](C)/C=C/c3ccccc3)OC(=O)[C@H](CC(C)C)OC(=O)[C@H](C)CNC2=O)cc1Cl [CRYPTOPHYCIN 175] | 100 | 100 | 100 |
| CC(C)C[C@@H]1OC(=O)CCNC(=O)[C@@H](Cc2ccc(O)c(Cl)c2)NC(=O)/C=C/C[C@@H]([C@H](C)[C@H]2O[C@@H]2c2ccccc2)OC1=O [CRYPTOPHYCIN 176] | 1.3 | 1.3 | 1.3 |
| COc1ccc(C[C@@H]2NC(=O)/C=C/C[C@@H]([C@H](C)/C=C/c3ccccc3)OC(=O)[C@H](CC(C)C)OC(=O)[C@H](C)CNC2=O)cc1Cl [CRYPTOPHYCIN 46] | 750 | 750 | 750 |
